Measured values reported in the supplement of paper PMC10307832.

Experiments:
Assay in all cases: relative viability (nuclei count vs DMSO), 5 days (fraction); higher = more cells survive
Cediranib + Tozasertib = compound: COc1cc2c(Oc3ccc4[nH]c(C)cc4c3F)ncnc2cc1OCCCN1CCCC1 [Cediranib] + Cc1cc(Nc2cc(N3CCN(C)CC3)nc(Sc3ccc(NC(=O)C4CC4)cc3)n2)n[nH]1 [Tozasertib] (partner 0.1 µM)
Outline: (§1)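 Each reported value is a median over duplicate plates. It expresses relative viability: treated-well nuclei count divided by vehicle-well nuclei count. Lung cancer cell lines in 1536-well plates were dosed by pin tool a day after seeding, alone with one drug or with a fixed anchor-drug dose plus five library-drug doses (not always all listed) in √10 steps, and nuclei were counted after 5 days.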

Halofuginone + Lapatinib = compound: O=C(C[C@H]1NCCC[C@@H]1O)Cn1cnc2cc(Br)c(Cl)cc2c1=O (racemic) [Halofuginone] + CS(=O)(=O)CCNCc1ccc(-c2ccc3ncnc(Nc4ccc(OCc5cccc(F)c5)c(Cl)c4)c3c2)o1 [Lapatinib] (partner 2 µM)
Outline: as §1

Halofuginone + Olaparib = compound: O=C(C[C@H]1NCCC[C@@H]1O)Cn1cnc2cc(Br)c(Cl)cc2c1=O (racemic) [Halofuginone] + O=C(c1cc(Cc2n[nH]c(=O)c3ccccc23)ccc1F)N1CCN(C(=O)C2CC2)CC1 [Olaparib] (partner 8 µM)
Outline: as §1

[1] = compound: O=C(C[C@H]1NCCC[C@@H]1O)Cn1cnc2cc(Br)c(Cl)cc2c1=O (racemic) [Halofuginone] + Cc1cc(Nc2cc(N3CCN(C)CC3)nc(Sc3ccc(NC(=O)C4CC4)cc3)n2)n[nH]1 [Tozasertib] (partner 0.1 µM)
Outline: as §1

UMC-11 was tested, and the relative viability (Cediranib + Tozasertib; first compound 0.04 µM) was 0.213, the relative viability (Cediranib + Tozasertib; first compound 0.4 µM) was 0.201 and the relative viability (Cediranib + Tozasertib; first compound 4 µM) was 0.2. The relative viability (Halofuginone + Lapatinib; first compound 0.001 µM) was 1.02, the relative viability (Halofuginone + Lapatinib; first compound 0.003162 µM) was 0.997 and the relative viability (Halofuginone + Lapatinib; first compound 0.01 µM) was 0.889. It also gave a relative viability (Halofuginone + Lapatinib; first compound 0.03162 µM) of 0.924, a relative viability (Halofuginone + Lapatinib; first compound 0.1 µM) of 0.7 and a relative viability (Halofuginone + Olaparib; first compound 0.001 µM) of 0.426. The relative viability (Halofuginone + Olaparib; first compound 0.003162 µM) was 0.381, the relative viability (Halofuginone + Olaparib; first compound 0.01 µM) was 0.566 and the relative viability (Halofuginone + Olaparib; first compound 0.03162 µM) was 0.471. For the same cell line, the relative viability (Halofuginone + Olaparib; first compound 0.1 µM) was 0.226, the relative viability ([1]; first compound 0.001 µM) was 0.219 and the relative viability ([1]; first compound 0.003162 µM) was 0.196. For the same cell line, the relative viability ([1]; first compound 0.01 µM) was 0.189, the relative viability ([1]; first compound 0.03162 µM) was 0.205 and the relative viability ([1]; first compound 0.1 µM) was 0.209.
